Data on seven molecules can be found in ChEMBL document CHEMBL4382233, “Discovery of novel arylethenesulfonyl fluorides as potential candidates against methicillin-resistant of Staphylococcus aureus (MRSA) for overcoming multidrug resistance of bacterial infections” (2019).

Assay [1] relates to Staphylococcus aureus. The assay can be described thus: Antibacterial activity against methicillin-resistant Staphylococcus aureus after overnight incubation by micro broth dilution analysis. Format: functional. (In general: Dilution methods test growth across graded concentrations, often in twofold steps.)
Assay [2] deals with Staphylococcus epidermidis. The assay can be described thus: Antibacterial activity against methicillin-resistant Staphylococcus epidermidis after overnight incubation by micro broth dilution analysis. Format: functional.
For assay [3], the system named is Staphylococcus haemolyticus. The assay can be described thus: Antibacterial activity against methicillin-resistant Staphylococcus haemolyticus after overnight incubation by micro broth dilution analysis. Format: functional.
In assay [4] the test system is Staphylococcus aureus. Briefly: Antibacterial activity against methicillin-resistant Staphylococcus aureus assessed as zone of inhibition at 50 ug/mL after 24 hrs by agar disc diffusion method. Format: functional. Conditions: read-out: IZ. (A growth-free zone around the sample is the usual read-out of agar diffusion tests.)
The subject of assay [5] is Staphylococcus epidermidis. Briefly: Antibacterial activity against methicillin-resistant Staphylococcus epidermidis assessed as zone of inhibition at 20 ug/mL after 24 hrs by agar disc diffusion method. Format: functional. Conditions: read-out: IZ.
In assay [6] the test system is Staphylococcus epidermidis. Briefly: Antibacterial activity against methicillin-resistant Staphylococcus epidermidis assessed as zone of inhibition at 200 ng/mL after 24 hrs by agar disc diffusion method. Format: functional. Conditions: read-out: IZ.
Assay [7] concerns Staphylococcus epidermidis. Briefly: Antibacterial activity against methicillin-resistant Staphylococcus epidermidis assessed as zone of inhibition at 400 ng/mL after 24 hrs by agar disc diffusion method. Conditions: read-out: IZ. Format: functional.
Assay [8] deals with Staphylococcus epidermidis. Briefly: Antibacterial activity against methicillin-resistant Staphylococcus epidermidis assessed as zone of inhibition at 800 ng/mL after 24 hrs by agar disc diffusion method. In kind it is functional. Conditions: read-out: IZ.
For assay [9], the system named is Staphylococcus haemolyticus. The assay can be described thus: Antibacterial activity against methicillin-resistant Staphylococcus haemolyticus assessed as zone of inhibition at 50 ug/mL after 24 hrs by agar disc diffusion method. Conditions: read-out: IZ. In kind it is functional.
Assay [10] relates to Staphylococcus aureus. The assay can be described thus: Induction of cellular content release in methicillin-resistant Staphylococcus aureus assessed as DNA content by measuring optical density at 260 nm at MIC after 240 mins by UV-visible spectrophotometric analysis. Format: functional.
The subject of assay [11] is Staphylococcus aureus. The assay can be described thus: Antibiofilm activity against methicillin-resistant Staphylococcus aureus at 2 times MIC after 24 hrs by crystal violet staining-based UV-visible spectrophotometric analysis. In kind it is functional, organism-based.
The test system of assay [12] is Staphylococcus haemolyticus. The assay can be described thus: Antibacterial activity against methicillin-resistant Staphylococcus haemolyticus assessed as zone of inhibition at 200 ng/mL after 24 hrs by agar disc diffusion method. Format: functional. Conditions: read-out: IZ.
Assay [13] relates to Staphylococcus haemolyticus. Briefly: Antibacterial activity against methicillin-resistant Staphylococcus haemolyticus assessed as zone of inhibition at 400 ng/mL after 24 hrs by agar disc diffusion method. Format: functional. Conditions: read-out: IZ.
In assay [14] the test system is Staphylococcus haemolyticus. The assay can be described thus: Antibacterial activity against methicillin-resistant Staphylococcus haemolyticus assessed as zone of inhibition at 800 ng/mL after 24 hrs by agar disc diffusion method. Format: functional. Conditions: read-out: IZ.
Assay [15] deals with Staphylococcus aureus. Briefly: Antibacterial activity against methicillin-resistant Staphylococcus aureus assessed as zone of inhibition at 200 ng/mL after 24 hrs by agar disc diffusion method. Format: functional. Conditions: read-out: IZ.
Assay [16] concerns Staphylococcus aureus. The assay can be described thus: Antibacterial activity against methicillin-resistant Staphylococcus aureus assessed as zone of inhibition at 400 ng/mL after 24 hrs by agar disc diffusion method. Format: functional. Conditions: read-out: IZ.
Assay [17] has as its system Staphylococcus aureus. Briefly: Antibacterial activity against methicillin-resistant Staphylococcus aureus assessed as zone of inhibition at 800 ng/mL after 24 hrs by agar disc diffusion method. Format: functional. Conditions: read-out: IZ.
The test system of assay [18] is Staphylococcus aureus. The assay can be described thus: Antibiofilm activity against methicillin-resistant Staphylococcus aureus planktonic biofilm assessed as optical density at 492 nm at MIC after 24 hrs by crystal violet staining-based UV-visible spectrophotometric analysis. In kind it is functional.
The test system of assay [19] is Staphylococcus aureus. The assay can be described thus: Antibiofilm activity against methicillin-resistant Staphylococcus aureus at MIC after 24 hrs by crystal violet staining-based UV-visible spectrophotometric analysis. Format: functional, organism-based.

Each structure is given as a SMILES string. ≈ marks a conversion by molar mass, not a printed value. Calls of active or inactive are those of the source. The calls are words filed in the database; no cut-off is given here.

Take `Cc1cc(C)cc(/C=C/S(=O)(=O)F)c1`: the MIC99 came out at 40.2 µg/mL (≈ 188 µM) with Staphylococcus aureus [1], 0.818 µg/mL (≈ 3.82 µM) in assay [2] and 60.2 µg/mL (≈ 281 µM) in [3]. Further, the zone of inhibition at 50 µg/mL worked out at 7.2 mm in the assay with Staphylococcus aureus [4] and 3.5 mm in assay [9]. For the same molecule, the zone of inhibition at 20 µg/mL in assay [5] came to 9.2 mm. For the same molecule, the zone of inhibition at 0.2 µg/mL in assay [6] was determined as 3.3 mm. For the same molecule, the zone of inhibition at 0.4 µg/mL in assay [7] turned out to be 5.2 mm. Moreover, in [8], the zone of inhibition at 0.8 µg/mL was found to be 9.8 mm. Also, the OD in the assay on Staphylococcus aureus [10] turned out to be 1.37. Further, the outcome in the assay with Staphylococcus aureus [11] was Active.
As for `COc1ccccc1/C=C/S(=O)(=O)F`, the MIC99 against Staphylococcus aureus [1] was determined as 69.1 µg/mL (≈ 319 µM); in assay [2], 0.829 µg/mL (≈ 3.83 µM); in [3] it was 0.837 µg/mL (≈ 3.87 µM). For the same molecule, the zone of inhibition at 50 µg/mL in the assay with Staphylococcus aureus [4] was 5.2 mm; in assay [9] it was 12.2 mm. In addition, the zone of inhibition at 20 µg/mL in assay [5] amounted to 7.2 mm. The figures for the zone of inhibition at 0.2 µg/mL in assay [6] and in assay [12] were 5.1 mm and 3.2 mm, respectively. Besides, the values for the zone of inhibition at 0.4 µg/mL in [7] and in assay [13] were 7.2 mm and 5.2 mm, respectively. Besides, the zone of inhibition at 0.8 µg/mL in assay [8] is 8.4 mm; in assay [14], 7.1 mm. The outcome in the assay with Staphylococcus aureus [11] was Active.
`O=S(=O)(F)/C=C/c1ccccc1Br`: the figures for the MIC99 (with Staphylococcus aureus [1]; in assay [2]; in assay [3]) were 0.839 µg/mL (≈ 3.16 µM), 0.809 µg/mL (≈ 3.05 µM) and 25.3 µg/mL (≈ 95.5 µM), respectively. Also, the zone of inhibition at 50 µg/mL in the assay with Staphylococcus aureus [4] is 20.1 mm; in assay [9], 11.2 mm. Also, the results for the zone of inhibition at 0.2 µg/mL (in the assay on Staphylococcus aureus [15]; in assay [6]; in assay [12]) were 3.5 mm, 10.1 mm and 1.1 mm, respectively. The zone of inhibition at 0.4 µg/mL in the assay on Staphylococcus aureus [16] amounted to 4.4 mm; in assay [7], 11.5 mm; in assay [13], 2.2 mm. Further, the results for the zone of inhibition at 0.8 µg/mL (with Staphylococcus aureus [17]; in assay [8]; in [14]) were 7.2 mm, 14.2 mm and 3.3 mm, respectively. For the same molecule, in [5], the zone of inhibition at 20 µg/mL was 14.1 mm. For the same molecule, the OD with Staphylococcus aureus [10] worked out at 1.58; with Staphylococcus aureus [18], 0.725.
As to `O=S(=O)(F)/C=C/c1ccc(C(F)(F)F)nc1`, the MIC99 against Staphylococcus aureus [1] was found to be 0.811 µg/mL (≈ 3.18 µM); in assay [2] it was 0.838 µg/mL (≈ 3.28 µM); in [3] it was 40 µg/mL (≈ 157 µM). In addition, the zone of inhibition at 50 µg/mL in the assay on Staphylococcus aureus [4] was found to be 12.2 mm; in assay [9], 5.5 mm. Further, the zone of inhibition at 0.2 µg/mL worked out at 5.1 mm in the assay with Staphylococcus aureus [15] and 4.2 mm in assay [6]. Also, the zone of inhibition at 0.4 µg/mL was 7.2 mm in the assay with Staphylococcus aureus [16] and 5.1 mm in assay [7]. Further, the zone of inhibition at 0.8 µg/mL with Staphylococcus aureus [17] is 11.2 mm; in [8] it was 7.2 mm. In addition, the zone of inhibition at 20 µg/mL in assay [5] is 8.5 mm. Further, the OD was found to be 1.67 in the assay on Staphylococcus aureus [10] and 0.815 in the assay with Staphylococcus aureus [18]. The outcome in the assay on Staphylococcus aureus [19] was Active.
On to `Cc1cc(/C=C/S(=O)(=O)F)ccc1Br`, for which the figures for the MIC99 (in the assay with Staphylococcus aureus [1]; in assay [2]; in assay [3]) were 0.81 µg/mL (≈ 2.9 µM), 50 µg/mL (≈ 179 µM) and 57.2 µg/mL (≈ 205 µM), respectively. Moreover, the values for the zone of inhibition at 50 µg/mL (with Staphylococcus aureus [4]; in assay [9]) were 12 mm and 5.3 mm, respectively. In the assay with Staphylococcus aureus [15], the zone of inhibition at 0.2 µg/mL came to 6.2 mm. Besides, the zone of inhibition at 0.4 µg/mL in the assay with Staphylococcus aureus [16] is 8.2 mm. Besides, in the assay on Staphylococcus aureus [17], the zone of inhibition at 0.8 µg/mL was 10.4 mm. In addition, the zone of inhibition at 20 µg/mL in [5] came to 6.3 mm. In addition, in the assay on Staphylococcus aureus [10], the OD is listed as 1.61. Besides, the outcome with Staphylococcus aureus [11] was Active.
As to `CC(C)S(=O)(=O)c1ccc(/C=C/S(=O)(=O)F)cc1`, the figures for the MIC99 (in the assay on Staphylococcus aureus [1]; in assay [2]; in [3]) were 0.808 µg/mL (≈ 2.76 µM), 41.4 µg/mL (≈ 142 µM) and 41.2 µg/mL (≈ 141 µM), respectively. Also, the zone of inhibition at 50 µg/mL in the assay on Staphylococcus aureus [4] came out at 9 mm; in [9] it was 5.2 mm. Further, the zone of inhibition at 0.2 µg/mL in the assay on Staphylococcus aureus [15] turned out to be 6.2 mm. The zone of inhibition at 0.4 µg/mL in the assay on Staphylococcus aureus [16] is 8.1 mm. Also, in the assay with Staphylococcus aureus [17], the zone of inhibition at 0.8 µg/mL was 10.1 mm. For the same molecule, the zone of inhibition at 20 µg/mL in assay [5] was 6.2 mm. The OD in the assay on Staphylococcus aureus [10] is given as 1.78; in the assay on Staphylococcus aureus [18] it was 0.6. Also, the outcome in the assay with Staphylococcus aureus [19] was Active.
In the case of `O=S(=O)(F)/C=C/c1cccc(O)c1`, the MIC99 was determined as 0.841 µg/mL (≈ 4.16 µM) in the assay with Staphylococcus aureus [1], 0.83 µg/mL (≈ 4.1 µM) in [2] and 58.2 µg/mL (≈ 288 µM) in [3]. In addition, the zone of inhibition at 50 µg/mL amounted to 12.2 mm in the assay with Staphylococcus aureus [4] and 4.5 mm in assay [9]. Moreover, the zone of inhibition at 0.2 µg/mL with Staphylococcus aureus [15] is 3.5 mm; in [6], 4.2 mm. The zone of inhibition at 0.4 µg/mL in the assay on Staphylococcus aureus [16] came out at 4.1 mm; in [7], 5.3 mm. Also, the results for the zone of inhibition at 0.8 µg/mL (in the assay with Staphylococcus aureus [17]; in assay [8]) were 6.3 mm and 7.4 mm, respectively. Also, in assay [5], the zone of inhibition at 20 µg/mL is 7.4 mm. In addition, in the assay with Staphylococcus aureus [10], the OD was found to be 1.52. The result in the assay with Staphylococcus aureus [11] was Active.

The MIC99 is an inhibitory concentration at the 99% level, which refers to growth in some studies and to a panel of isolates in others. A low value points to greater potency.
